Square brackets hold non-standard residues; d marks the D form. Ends that are not written are not given here. βAla = NCCC(=O)O
Columns and labels:
[1] = DLS particle size and level of aggregation of ADGN-peptide/mRNA complexes; type: physicochemical; conditions: retro inverso modification vs parent peptide
Procedure: Complex formation with mRNA. The following protocols were used for the transfection of 2-5 106 Cells or Cells at confluency of about 70-80% cultured in 24 well plates. ADGN peptide/mRNA particles were prepared at a 20:1 molar ratio of ADGN-Peptide/mRNA. using (0.25 μg) mRNA. Luc mRNA (0.25 μg) was diluted in 20 μl of sterile water (GIBCO) at room temperature. 5 μl Final Peptide Solution was added to obtain a total volume of 20 μl. The volume was adjusted to 50 μl with sterile water and was mixed gently with vortex 1 min low speed and incubated 30 min at room temperature. Then the volume was made up to 100 μl by adding sterile water containing 5% sucrose, and the solution was mixed gently with vortex 1 min low speed and incubate 5 min at 37° C. and then was proceeded to cell transfection.
The ability of the different ADGN-peptides to form stable nanoparticles with mRNA was analyzed. The particle sizes and level of aggregation were measured on DLS NanoZS (Malvern Ltd). The mean size and the polydispersity of the ADGN/mRNA complexes were determined at 25° C. for 3 minute per measurement. In order to remove large particles, ADGN/mRNA complexed were filtered using either PES or PVDF 0.45 μm filters. Data are shown in FIG. 8 and FIG. 9 for a mean of 3 separate experiments.

mice = experiment: In vivo delivery of Luciferase mRNA, intramuscular administration, bioluminescence imaging; conditions: IM, Luc mRNA
Procedure: FIGS. 5A-5B show the potency of ADGN-peptide variants for in vivo delivery of Luciferase mRNA via intramuscular administration in mice. ADGN-peptide/luc mRNA particles containing 2.5 μg mRNA were formed in sterile water, and then diluted in 5% sucrose. Mice received […] injection o 25 μl ADGN-peptide/mRNA complexes. mRNA LUC expression was monitored by bioluminescence imaging after 12 h, 24 h and 48h (A). FIG. 5B show bioluminescence imaging at 24 hr in control and treated groups.
Stable ADGN-peptides/mRNA were evaluated for in vivo delivery of Luciferase mRNA via intravenous and intramuscular administrations. Animals were treated with single dose of 5 moU modified Luc mRNA of 5 μg. 5 moU modified Luc mRNA (5 μg) in sterile water (GIBCO) were mixed with ADGN peptide (sterile water), volume for each sample was adjusted to 100 μl, with sterile water containing 5% Sucrose. Samples were mixed gently with vortex for 1 minute at low speed and incubated for 30 min at room temperature. Samples were filtered on 0.45 μm PES filters prior administration. For IV administration Mice received 100 μl intravenous (IV) injection of either ADGN-106/mRNA, ADGN-100/mRNA, ADGN-106RI/mRNA, ADGN-100-stearyl/mRNA, ADGN-100Hydro1/mRNA, ADGN-100Hydro2 or ADGN/mRNA complexes containing 10% of ADGN-100PEG (3 animals per group). As control, mice from group 3 (2 animals per group) received IV injection of 100 μl of naked 5 moU modified Luc mRNA (5 μg). For IM administration, mice received 25 μl (5 μg mRNA) IV injection of either ADGN-100/mRNA, ADGN-106/mRNA, ADGN-106RI/mRNA or ADGN/mRNA complexes containing 10% or 20% of ADGN-100PEG (2 animals per group). As control, mice from group 3 (2 animals per group) received IV injection of 25 μl of naked 5 moU modified Luc mRNA (5 μg).
mRNA Luc expression was monitored by bioluminescence. Bioluminescence imaging was performed after 12, 24, 48 and 72 hrs. Mice received an i.p. injection of 150 μg/g luciferin for noninvasive bioluminescence imaging (IVIS Kinetic; PerkinElmer, Waltham, MA, USA).

Row | Substance | ability of the peptide to form stable complex with mRNA [1] | increase of luciferase expression in the muscle / efficiency relative to ADGN-106 (mice) | luciferase expression (mice)
1 | akwllrwlsrwlrwlarwlr ([dA][dK][dW][dL][dL][dR][dW][dL][dS][dR][dW][dL][dR][dW][dL][dA][dR][dW][dL][dR]; also: retro-inverso) [ADGN-106-RI] | did not modify the ability of the peptide to form stable complex with mRNA | 6 fold | mediated Luciferase expression following intramuscular (IM) administration
2 | rswsrvrwlrwrwgasrwk ([dR][dS][dW][dS][dR][dV][dR][dW][dL][dR][dW][dR][dW]G[dA][dS][dR][dW][dK]; also: retro-inverso) [ADGN-100-RI] | did not modify the ability of the peptide to form stable complex with mRNA |  | 
3 | βAKWRSAGWRWRLW RVRSWSR (AKWRSAGWRWRLWRVRSWSR; N-terminal beta-alanine; VARIANT 1 beta-A) [ADGN-100] |  |  | no significant expression
4 | βALWRALWRLWRSLWRLLWKA ([βAla]LWRALWRLWRSLWRLLWKA) [ADGN-106] |  |  | mediated Luciferase expression following intramuscular (IM) administration

Reference: US12357695B2, “Peptides and nanoparticles for intracellular delivery of molecules” (AADIGEN, LLC, priority 2019, dated 2025)
